# Biological target: human LPAR1 (Homo sapiens (Human), UniProt Q92633)
# Test: LPAR1 intracellular calcium mobilization assay (antagonist mode, FLIPR)
# Assay type: cell-based
# Conditions: CHO-K1 EDG2 cells expressing human LPAR1, LPA 18:2 at EC80 (100 nM), test compound 0.5 nM to 10 μM
# human LPAR1, sequence (Q92633 whole entry): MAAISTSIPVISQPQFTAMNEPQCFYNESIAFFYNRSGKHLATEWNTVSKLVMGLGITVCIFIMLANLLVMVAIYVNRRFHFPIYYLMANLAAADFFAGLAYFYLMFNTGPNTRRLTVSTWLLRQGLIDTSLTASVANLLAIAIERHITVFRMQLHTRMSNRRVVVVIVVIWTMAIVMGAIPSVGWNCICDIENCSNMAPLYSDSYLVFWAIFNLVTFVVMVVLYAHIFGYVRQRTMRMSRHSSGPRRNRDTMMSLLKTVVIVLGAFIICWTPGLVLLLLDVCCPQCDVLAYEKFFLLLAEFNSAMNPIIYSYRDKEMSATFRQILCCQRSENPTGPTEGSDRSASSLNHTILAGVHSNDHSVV
row,SMILES,EC50
1,"C[C@@H](OC(=O)Nc1c(-c2cc(F)c(NC(=O)C34CC(C#N)(C3)C4)cn2)nnn1C)c1cccnc1Cl [Compound 184, (R)-1-(2-chloropyridin-3-yl)ethyl (4-(5-(3-cyanobicyclo[1.1.1]pentane-1-carboxamido)-4-fluoropyridin-2-yl)-1-methyl-1H-1,2,3-triazol-5-yl)carbamate]",81.8 nM
2,C[C@@H](OC(=O)Nc1c(-c2ccc(NC(=O)C3CC(NC4CC4)C3)cn2)nnn1C)c1cccnc1Cl (stereo partly drawn) [Compound 311],1530 nM
3,"CC(C)COC(=O)Nc1ccc(-c2nnn(C)c2NC(=O)O[C@H](C)c2cccnc2Cl)nc1 [Compound 22, (R)-1-(2-chloropyridin-3-yl)ethyl (4-(5-((isobutoxycarbonyl)amino)pyridin-2-yl)-1-methyl-1H-1,2,3-triazol-5-yl)carbamate]",43.4 nM
4,"C[C@@H](OC(=O)Nc1c(-c2ccc(NC(=O)c3ccc(C#N)nc3)cn2)nnn1C)c1cccnc1Cl [Compound 99, (R)-1-(2-chloropyridin-3-yl)ethyl (4-(5-(6-cyanonicotinamido)pyridin-2-yl)-1-methyl-1H-1,2,3-triazol-5-yl)carbamate]",53.9 nM
5,"Cc1nc(-c2nnn(C)c2NC(=O)O[C@H](C)c2cc(F)cnc2F)ccc1NC(=O)c1cnc(C(F)(F)F)nc1 [Compound 314, (R)-1-(2,5-difluoropyridin-3-yl)ethyl (1-methyl-4-(6-methyl-5-(2-(trifluoromethyl)pyrimidine-5-carboxamido)pyridin-2-yl)-1H-1,2,3-triazol-5-yl)carbamate]",2.9 nM
6,"C[C@@H](OC(=O)Nc1c(-c2ccc(NC(=O)C3CC(=O)C3)cn2)nnn1C)c1cccnc1Cl [Compound 83, (R)-1-(2-chloropyridin-3-yl)ethyl (1-methyl-4-(5-(3-oxocyclobutane-1-carboxamido)pyridin-2-yl)-1H-1,2,3-triazol-5-yl)carbamate]",344 nM
7,"CC#CC(=O)Nc1ccc(-c2nnn(C)c2NC(=O)O[C@H](C)c2cccnc2Cl)nc1 [Compound 76, (R)-1-(2-chloropyridin-3-yl)ethyl (4 (5-(but-2-ynamido)pyridin-2-yl)-1-methyl-1H-1,2,3-triazol-5-yl)carbamate]",275 nM
8,"C[C@@H](OC(=O)Nc1c(-c2cnc(NC(=O)C3(C#N)CC3)cn2)nnn1C)c1cc(F)cnc1F [Compound 328, (R)-1-(2,5-difluoropyridin-3-yl)ethyl (4-(5-(1-cyanocyclopropane-1-carboxamido)pyrazin-2-yl)-1-methyl-1H-1,2,3-triazol-5-yl)carbamate]",1130 nM
9,"C[C@@H](OC(=O)Nc1c(-c2ccc(NC(=O)C3(C#N)COC3)cn2)nnn1C)c1cccnc1Cl [Compound 93, (R)-1-(2-chloropyridin-3-yl)ethyl (4-(5-(3-cyanooxetane-3-carboxamido)pyridin-2-yl)-1-methyl-1H-1,2,3-triazol-5-yl)carbamate]",133 nM
10,"Cc1cc(C(=O)Nc2ccc(-c3nnn(C)c3NC(=O)O[C@H](C)c3cccnc3Cl)nc2)ccn1 [Compound 102, (R)-1-(2-chloropyridin-3-yl)ethyl (1-methyl-4-(5-(2-methylisonicotinamido)pyridin-2-yl)-1H-1,2,3-triazol-5-yl)carbamate]",85.6 nM
11,"Cc1ncc(F)cc1[C@@H](C)OC(=O)Nc1c(-c2ccc(NC(=O)C3CC(F)(F)C3)cn2)nnn1C [Compound 175, (R)-1-(5-fluoro-2-methylpyridin-3-yl)ethyl (4-(5-(3,3-difluorocyclobutane-1-carboxamido)pyridin-2-yl)-1-methyl-1H-1,2,3-triazol-5-yl)carbamate]",35.4 nM
12,"CC(=O)Nc1ccc(-c2nnn(C)c2NC(=O)O[C@H](C)c2cccnc2Cl)nc1 [Compound 23, (R)-1-(2-chloropyridin-3-yl)ethyl (4-(5-acetamidopyridin-2-yl)-1-methyl-1H-1,2,3-triazol-5-yl)carbamate]",1100 nM
13,"C[C@@H](OC(=O)Nc1c(-c2ccc(NC(=O)[C@@H]3CNC(=O)C3)cn2)nnn1C)c1cccnc1Cl [Compound 150, (R)-1-(2-chloropyridin-3-yl)ethyl (1-methyl-4-(5-((S)-5-oxopyrrolidine-3-carboxamido)pyridin-2-yl)-1H-1,2,3-triazol-5-yl)carbamate]",880 nM
14,"CC(=O)Nc1ccc(-c2nnn(C)c2NC(=O)O[C@H](CF)c2cccc(F)c2)nc1 [Compound 25, (S)-2-fluoro-1-(3-fluorophenyl)ethyl (4-(5-acetamidopyridin-2-yl)-1-methyl-1H-1,2,3-triazol-5-yl)carbamate]",2270 nM
15,"C[C@@H](OC(=O)Nc1c(-c2ccc(NC(=O)C3(C(F)(F)F)CC4(CCC4)C3)cn2)nnn1C)c1cccnc1Cl [Compound 78, (R)-1-(2-chloropyridin-3-yl)ethyl (1-methyl-4-(5-(2-(trifluoromethyl)spiro[3.3]heptane-2-carboxamido)pyridin-2-yl)-1H-1,2,3-triazol-5-yl)carbamate]",83.6 nM
16,"C[C@@H](OC(=O)Nc1c(-c2ccc(NC(=O)CC(F)F)cn2)nnn1C)c1cccnc1Cl [Compound 107, (R)-1-(2-chloropyridin-3-yl)ethyl (4-(5-(3,3-difluoropropanamido)pyridin-2-yl)-1-methyl-1H-1,2,3-triazol-5-yl)carbamate]",10000 nM
17,"C[C@@H](OC(=O)Nc1c(-c2ccc(NC(=O)C3CC4(COC4)C3)cn2)nnn1C)c1cccnc1Cl [Compound 42, (R)-1-(2-chloropyridin-3-yl)ethyl (4-(5-(2-oxaspiro[3.3]heptane-6-carboxamido)pyridin-2-yl)-1-methyl-1H-1,2,3-triazol-5-yl)carbamate]",201 nM
18,"C[C@@H](OC(=O)Nc1c(-c2ccc(NC(=O)C3(C)COC3)cn2)nnn1C)c1cccnc1Cl [Compound 97, (R)-1-(2-chloropyridin-3-yl)ethyl (1-methyl-4-(5-(3-methyloxetane-3-carboxamido)pyridin-2-yl)-1H-1,2,3-triazol-5-yl)carbamate]",395 nM
19,"C[C@@H](OC(=O)Nc1c(-c2ccc(NC(=O)[C@@H]3C[C@H]3C(F)(F)F)cn2)nnn1C)c1cc(F)cnc1F (mixture of isomers) [Compound 209, (R)-1-(2,5-difluoropyridin-3-yl)ethyl (1-methyl-4-(5-((1RS,2RS)-2-(trifluoromethyl)cyclopropane-1-carboxamido)pyridin-2-yl)-1H-1,2,3-triazol-5-yl)carbamate]",17.7 nM
20,"C[C@@H](OC(=O)Nc1c(-c2ccc(NC(=O)[C@@]3(C#N)C[C@@H]3C(F)F)cn2)nnn1C)c1cc(F)cnc1F [Compound 246, (R)-1-(2,5-difluoropyridin-3-yl)ethyl (4-(5-((1S,2S)-1-cyano-2-(difluoromethyl)cyclopropane-1-carboxamido)pyridin-2-yl)-1-methyl-1H-1,2,3-triazol-5-yl)carbamate]",103 nM
21,"COC(=O)Nc1ccc(-c2nnn(C)c2NC(=O)O[C@H](CF)c2ccccc2)cc1 [Compound 18, (S)-2-fluoro-1-phenylethyl (4-(4-((methoxycarbonyl)amino)phenyl)-1-methyl-1H-1,2,3-triazol-5-yl)carbamate]",1130 nM
22,"CC(=O)Nc1cnc(-c2nnn(C)c2NC(=O)O[C@H](C)c2cccnc2Cl)c(F)c1 [Compound 9, (R)-1-(2-chloropyridin-3-yl)ethyl (4-(5-acetamido-3-fluoropyridin-2-yl)-1-methyl-1H-1,2,3-triazol-5-yl)carbamate]",2700 nM
23,"C[C@@H](OC(=O)Nc1c(-c2ccc(NC(=O)[C@H]3CNC(=O)C3)cn2)nnn1C)c1cccnc1Cl [Compound 195, (R)-1-(2-chloropyridin-3-yl)ethyl (1-methyl-4-(5-((R)-5-oxopyrrolidine-3-carboxamido)pyridin-2-yl)-1H-1,2,3-triazol-5-yl)carbamate]",1540 nM
24,"C[C@@H](OC(=O)Nc1c(-c2ccc(NC(=O)C3(C#N)CC(O)C3)cn2)nnn1C)c1cccnc1Cl (stereo partly drawn) [Compound 135, (R)-1-(2-chloropyridin-3-yl)ethyl (4-(5-(1-cyano-3-hydroxycyclobutane-1-carboxamido)pyridin-2-yl)-1-methyl-1H-1,2,3-triazol-5-yl)carbamate]",726 nM
25,"C[C@@H](OC(=O)Nc1c(-c2ccc(NC(=O)C3CC(O)(C(F)(F)F)C3)cn2)nnn1C)c1cccnc1Cl (stereo partly drawn) [Compound 136, (R)-1-(2-chloropyridin-3-yl)ethyl (4-(5-(3-hydroxy-3-(trifluoromethyl)cyclobutane-1-carboxamido)pyridin-2-yl)-1-methyl-1H-1,2,3-triazol-5-yl)carbamate]",602 nM
26,"C[C@@H](OC(=O)Nc1c(-c2ccc(NC(=O)c3cccnc3)cn2)nnn1C)c1cccnc1Cl [Compound 58, (R)-1-(2-chloropyridin-3-yl)ethyl (1-methyl-4-(5-(nicotinamido)pyridin-2-yl)-1H-1,2,3-triazol-5-yl)carbamate]",205 nM
27,"C[C@@H](OC(=O)Nc1c(-c2ccc(NC(=O)c3cnccc3Cl)cn2)nnn1C)c1cc(F)cnc1F [Compound 253, (R)-1-(2,5-difluoropyridin-3-yl)ethyl (4-(5-(4-chloronicotinamido)pyridin-2-yl)-1-methyl-1H-1,2,3-triazol-5-yl)carbamate]",551 nM
28,"C[C@@H](OC(=O)Nc1c(-c2ccc(NC(=O)c3ccc(C(F)(F)F)nc3F)cn2)nnn1C)c1cc(F)cnc1F [Compound 254, (R)-1-(2,5-difluoropyridin-3-yl)ethyl (4-(5-(2-fluoro-6-(trifluoromethyl)nicotinamido)pyridin-2-yl)-1-methyl-1H-1,2,3-triazol-5-yl)carbamate]",18.1 nM
29,"C[C@@H](OC(=O)Nc1c(-c2ccc(NC(=O)c3cnn(C)c3)cn2)nnn1C)c1cccnc1Cl [Compound 112, (R)-1-(2-chloropyridin-3-yl)ethyl (1-methyl-4-(5-(1-methyl-1H-pyrazole-4-carboxamido)pyridin-2-yl)-1H-1,2,3-triazol-5-yl)carbamate]",1400 nM
30,"C[C@@H](OC(=O)Nc1c(-c2ccc(NC(=O)C3CC(F)(F)C3)cn2)nnn1C)c1cccnc1Cl [Compound 37, (R)-1-(2-chloropyridin-3-yl)ethyl (4-(5-(3,3-difluorocyclobutane-1-carboxamido)pyridin-2-yl)-1-methyl-1H-1,2,3-triazol-5-yl)carbamate]",54.6 nM

# — patent US11912686B2 (Gilead Sciences, Inc., priority 2020, dated 2024)
